# Assay results taken from the kinase profiling compilation of Christmann-Franck et al. (2016).
# Where “and” joins values, the source holds several entries; their conditions need not be identical. Equal entries are not always repeated.
# How the values were obtained:
# Experiment in all cases: KINOMEscan competition binding
# Details in all cases: compound 10.0 µM
# [1] = target: HIPK1 (human) (UniProt Q86Z02)
# [2] = target: SRC (human) (UniProt P12931)
# [3] = target: CDK3 (human) (UniProt Q00526)
# [4] = target: RET (human) (UniProt P07949)
# [5] = target: MARK1 (human) (UniProt Q9P0L2)
# Chain of MARK1 (human) (Q9P0L2 whole entry, looked up): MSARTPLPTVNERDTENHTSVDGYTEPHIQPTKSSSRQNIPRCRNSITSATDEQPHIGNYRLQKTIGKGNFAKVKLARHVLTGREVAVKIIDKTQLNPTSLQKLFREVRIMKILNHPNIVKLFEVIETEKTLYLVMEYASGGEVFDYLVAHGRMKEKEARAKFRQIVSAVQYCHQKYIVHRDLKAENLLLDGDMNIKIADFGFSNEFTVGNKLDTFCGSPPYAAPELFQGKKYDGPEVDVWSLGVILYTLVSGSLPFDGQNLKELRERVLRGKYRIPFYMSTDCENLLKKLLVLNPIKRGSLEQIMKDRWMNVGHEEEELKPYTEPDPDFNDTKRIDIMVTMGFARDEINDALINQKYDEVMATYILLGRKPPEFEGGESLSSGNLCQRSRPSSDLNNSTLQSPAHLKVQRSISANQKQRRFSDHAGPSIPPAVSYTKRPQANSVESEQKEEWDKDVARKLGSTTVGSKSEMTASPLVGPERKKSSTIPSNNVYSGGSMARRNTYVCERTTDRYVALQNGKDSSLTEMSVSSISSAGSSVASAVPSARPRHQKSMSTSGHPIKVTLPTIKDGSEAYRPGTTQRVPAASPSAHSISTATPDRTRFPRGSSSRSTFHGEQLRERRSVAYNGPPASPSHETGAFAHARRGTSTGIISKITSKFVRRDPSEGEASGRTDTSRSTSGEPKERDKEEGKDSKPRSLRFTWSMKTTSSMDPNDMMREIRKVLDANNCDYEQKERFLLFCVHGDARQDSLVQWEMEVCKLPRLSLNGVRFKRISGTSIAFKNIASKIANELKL
# [6] = target: STK16 (human) (UniProt O75716)
# [7] = target: MYLK4 (human) (UniProt Q86YV6)
# [8] = target: EPHA7 (human) (UniProt Q15375)
# [9] = target: STK36 (human) (UniProt Q9NRP7)
# [10] = target: PKN2 (human) (UniProt Q16513)
# [11] = target: FGFR4 (human) (UniProt P22455)
# Chain of FGFR4 (human) (P22455 whole entry, looked up): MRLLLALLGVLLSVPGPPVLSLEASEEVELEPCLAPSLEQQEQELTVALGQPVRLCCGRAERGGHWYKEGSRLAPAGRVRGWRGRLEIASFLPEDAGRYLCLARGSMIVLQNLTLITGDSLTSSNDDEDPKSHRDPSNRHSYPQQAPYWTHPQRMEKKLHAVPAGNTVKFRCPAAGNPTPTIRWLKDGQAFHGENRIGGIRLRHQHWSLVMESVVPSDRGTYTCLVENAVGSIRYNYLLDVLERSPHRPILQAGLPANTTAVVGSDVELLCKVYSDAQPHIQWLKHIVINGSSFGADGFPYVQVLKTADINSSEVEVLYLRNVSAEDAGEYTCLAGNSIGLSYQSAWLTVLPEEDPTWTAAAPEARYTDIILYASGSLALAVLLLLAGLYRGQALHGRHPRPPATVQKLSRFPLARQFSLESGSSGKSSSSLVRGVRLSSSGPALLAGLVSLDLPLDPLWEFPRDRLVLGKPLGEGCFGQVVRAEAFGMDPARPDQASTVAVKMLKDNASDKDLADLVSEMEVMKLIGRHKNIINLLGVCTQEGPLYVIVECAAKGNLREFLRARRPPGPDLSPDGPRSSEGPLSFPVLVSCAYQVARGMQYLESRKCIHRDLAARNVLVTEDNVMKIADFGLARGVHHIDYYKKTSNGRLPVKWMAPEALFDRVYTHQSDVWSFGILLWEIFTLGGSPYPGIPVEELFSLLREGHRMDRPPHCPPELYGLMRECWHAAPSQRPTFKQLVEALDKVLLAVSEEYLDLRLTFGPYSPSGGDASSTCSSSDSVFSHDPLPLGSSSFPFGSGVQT
# [12] = target: PKN1 (human) (UniProt Q16512)
# [13] = target: PTK2 (human) (UniProt Q05397)
# Chain of PTK2 (human) (Q05397 whole entry, looked up): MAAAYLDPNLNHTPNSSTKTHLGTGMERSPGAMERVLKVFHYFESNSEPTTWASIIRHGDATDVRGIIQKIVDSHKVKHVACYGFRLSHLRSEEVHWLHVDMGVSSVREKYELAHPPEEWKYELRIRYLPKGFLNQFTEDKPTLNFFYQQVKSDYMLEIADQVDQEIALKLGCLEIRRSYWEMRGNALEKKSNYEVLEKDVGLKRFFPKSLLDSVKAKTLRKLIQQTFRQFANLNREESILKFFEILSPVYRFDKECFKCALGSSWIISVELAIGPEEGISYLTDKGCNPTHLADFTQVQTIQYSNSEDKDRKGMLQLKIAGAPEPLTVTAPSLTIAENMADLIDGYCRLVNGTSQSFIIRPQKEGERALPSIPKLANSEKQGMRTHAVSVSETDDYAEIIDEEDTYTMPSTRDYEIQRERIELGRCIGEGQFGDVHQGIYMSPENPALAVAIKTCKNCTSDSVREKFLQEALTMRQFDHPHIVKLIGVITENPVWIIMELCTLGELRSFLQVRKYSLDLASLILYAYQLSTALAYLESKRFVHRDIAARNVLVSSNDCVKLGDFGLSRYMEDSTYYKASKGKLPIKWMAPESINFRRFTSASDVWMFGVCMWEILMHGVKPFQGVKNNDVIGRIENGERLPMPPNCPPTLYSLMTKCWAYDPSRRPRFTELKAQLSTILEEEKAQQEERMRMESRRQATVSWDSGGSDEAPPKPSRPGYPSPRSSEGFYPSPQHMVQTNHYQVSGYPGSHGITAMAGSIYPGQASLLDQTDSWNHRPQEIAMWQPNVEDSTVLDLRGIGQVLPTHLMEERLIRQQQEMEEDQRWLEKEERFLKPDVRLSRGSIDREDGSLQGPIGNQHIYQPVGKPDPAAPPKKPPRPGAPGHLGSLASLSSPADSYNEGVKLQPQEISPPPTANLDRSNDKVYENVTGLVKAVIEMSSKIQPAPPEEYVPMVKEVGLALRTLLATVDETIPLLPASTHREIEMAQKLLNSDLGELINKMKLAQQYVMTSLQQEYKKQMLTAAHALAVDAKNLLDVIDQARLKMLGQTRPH
# [14] = target: RPS6KA2 KD2 (human) (UniProt Q15349)
# Chain of RPS6KA2 KD2 (human) (Q15349 whole entry, looked up): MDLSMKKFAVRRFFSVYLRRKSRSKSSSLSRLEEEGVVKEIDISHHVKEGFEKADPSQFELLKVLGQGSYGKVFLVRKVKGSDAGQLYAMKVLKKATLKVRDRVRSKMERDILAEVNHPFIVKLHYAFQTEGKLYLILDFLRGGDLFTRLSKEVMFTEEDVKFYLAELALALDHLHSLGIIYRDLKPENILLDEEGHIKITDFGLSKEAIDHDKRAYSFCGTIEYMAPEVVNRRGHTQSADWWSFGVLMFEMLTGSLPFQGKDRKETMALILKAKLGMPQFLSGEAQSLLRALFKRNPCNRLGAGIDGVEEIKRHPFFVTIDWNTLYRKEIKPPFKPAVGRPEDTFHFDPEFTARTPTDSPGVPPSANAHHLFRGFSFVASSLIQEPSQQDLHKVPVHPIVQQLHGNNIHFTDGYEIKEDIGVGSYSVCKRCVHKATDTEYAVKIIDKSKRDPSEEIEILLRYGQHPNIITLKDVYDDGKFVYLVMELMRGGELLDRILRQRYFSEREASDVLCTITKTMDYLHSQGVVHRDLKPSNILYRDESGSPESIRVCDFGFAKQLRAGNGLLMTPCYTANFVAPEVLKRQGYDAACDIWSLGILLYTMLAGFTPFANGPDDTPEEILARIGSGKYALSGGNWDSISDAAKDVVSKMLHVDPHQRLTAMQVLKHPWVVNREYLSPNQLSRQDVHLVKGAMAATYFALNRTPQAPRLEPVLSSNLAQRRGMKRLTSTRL
# [15] = target: PTK2B (human) (UniProt Q14289)
# [16] = target: RPS6KA2 KD1 (human) (UniProt Q15349)
# Chain of RPS6KA2 KD1 (human) (Q15349 whole entry, looked up): as above
# [17] = target: TAOK1 (human) (UniProt Q7L7X3)
# [18] = target: PLK3 (human) (UniProt Q9H4B4)
# [19] = target: GSK3B (human) (UniProt P49841)
# [20] = target: RIPK1 (human) (UniProt Q13546)
# [21] = target: PIM3 (human) (UniProt Q86V86)
# [22] = target: CSF1R (human) (UniProt P07333)
# Chain of CSF1R (human) (P07333 whole entry, looked up): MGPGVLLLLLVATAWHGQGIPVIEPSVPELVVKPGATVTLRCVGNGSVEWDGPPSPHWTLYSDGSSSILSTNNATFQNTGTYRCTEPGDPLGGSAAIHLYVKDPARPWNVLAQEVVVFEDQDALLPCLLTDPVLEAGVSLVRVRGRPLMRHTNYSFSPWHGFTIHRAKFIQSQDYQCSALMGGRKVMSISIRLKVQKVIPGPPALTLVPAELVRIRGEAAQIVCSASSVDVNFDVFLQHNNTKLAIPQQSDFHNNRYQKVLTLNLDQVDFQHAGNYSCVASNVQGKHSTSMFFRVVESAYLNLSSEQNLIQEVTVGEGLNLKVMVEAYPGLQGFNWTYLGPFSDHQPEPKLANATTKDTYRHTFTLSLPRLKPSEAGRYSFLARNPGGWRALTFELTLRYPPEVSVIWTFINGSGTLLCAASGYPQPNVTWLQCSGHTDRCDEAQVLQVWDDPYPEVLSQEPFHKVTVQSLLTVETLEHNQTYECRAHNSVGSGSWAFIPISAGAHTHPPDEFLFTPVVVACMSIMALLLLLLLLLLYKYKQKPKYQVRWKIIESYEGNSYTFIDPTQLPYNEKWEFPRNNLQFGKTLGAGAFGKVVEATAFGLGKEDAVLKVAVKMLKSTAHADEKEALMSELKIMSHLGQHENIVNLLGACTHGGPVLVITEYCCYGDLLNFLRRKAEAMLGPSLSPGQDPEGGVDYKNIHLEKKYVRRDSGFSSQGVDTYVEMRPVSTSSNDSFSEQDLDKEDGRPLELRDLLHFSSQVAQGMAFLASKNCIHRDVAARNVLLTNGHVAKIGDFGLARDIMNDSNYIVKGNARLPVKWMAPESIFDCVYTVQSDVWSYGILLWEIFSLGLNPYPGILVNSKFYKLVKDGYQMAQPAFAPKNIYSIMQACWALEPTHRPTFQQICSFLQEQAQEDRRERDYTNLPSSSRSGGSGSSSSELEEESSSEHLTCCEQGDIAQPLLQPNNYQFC
# [23] = target: CSNK1E (human) (UniProt P49674)
# [24] = target: MAPK7 (human) (UniProt Q13164)
# [25] = target: STK24 (human) (UniProt Q9Y6E0)
# [26] = target: AURKA (human) (UniProt O14965)
# [27] = target: BRSK1 (human) (UniProt Q8TDC3)
# [28] = target: PIK3CB (human) (UniProt P42338)
# [29] = target: JAK1 JH2 pseudokinase (human) (UniProt P23458)
# [30] = target: CDK19 (human) (UniProt Q9BWU1)
# [31] = target: BLK (human) (UniProt P51451)
# [32] = target: TXK (human) (UniProt P42681)
# [33] = target: RIOK1 (human) (UniProt Q9BRS2)
# [34] = target: SYK (human) (UniProt P43405)
# [35] = target: STK25 (human) (UniProt O00506)
# Chain of STK25 (human) (O00506 whole entry, looked up): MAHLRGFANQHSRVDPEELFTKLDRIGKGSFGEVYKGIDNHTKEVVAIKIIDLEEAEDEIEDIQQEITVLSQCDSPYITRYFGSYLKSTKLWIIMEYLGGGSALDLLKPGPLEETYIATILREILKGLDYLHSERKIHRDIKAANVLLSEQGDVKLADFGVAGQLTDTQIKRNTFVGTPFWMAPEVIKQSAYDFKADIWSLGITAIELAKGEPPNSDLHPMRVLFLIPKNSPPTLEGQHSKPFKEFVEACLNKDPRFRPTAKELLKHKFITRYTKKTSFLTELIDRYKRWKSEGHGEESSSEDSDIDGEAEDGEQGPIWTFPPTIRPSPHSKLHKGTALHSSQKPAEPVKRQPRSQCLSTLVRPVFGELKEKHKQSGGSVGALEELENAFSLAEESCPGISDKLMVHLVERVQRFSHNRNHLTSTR
# [36] = target: MAP3K12 (human) (UniProt Q12852)
# [37] = target: MARK4 (human) (UniProt Q96L34)
# [38] = target: CDK14 (human) (UniProt O94921)
# [39] = target: RIPK4 (human) (UniProt P57078)
# [40] = target: LATS1 (human) (UniProt O95835)
Compound,"kinase still bound, per cent of control [1]","kinase still bound, per cent of control [2]","kinase still bound, per cent of control [3]","kinase still bound, per cent of control [4]","kinase still bound, per cent of control [5]","kinase still bound, per cent of control [6]","kinase still bound, per cent of control [7]","kinase still bound, per cent of control [8]","kinase still bound, per cent of control [9]","kinase still bound, per cent of control [10]","kinase still bound, per cent of control [11]","kinase still bound, per cent of control [12]","kinase still bound, per cent of control [13]","kinase still bound, per cent of control [14]","kinase still bound, per cent of control [15]","kinase still bound, per cent of control [16]","kinase still bound, per cent of control [17]","kinase still bound, per cent of control [18]","kinase still bound, per cent of control [19]","kinase still bound, per cent of control [20]",further results
N#Cc1c(NC(=O)c2cccc3ccccc23)sc2c1CCCC2,91%,81%,97%,94%,100%,89%,98%,84%,66%,81%,49%,94%,91%,79%,79%,93%,100%,100%,66%,87%,"kinase still bound, per cent of control [21]: 100%; kinase still bound, per cent of control [22]: 100% and 84%; kinase still bound, per cent of control [23]: 70%; kinase still bound, per cent of control [24]: 96%; kinase still bound, per cent of control [25]: 80%; kinase still bound, per cent of control [26]: 100%; kinase still bound, per cent of control [27]: 100%; kinase still bound, per cent of control [28]: 100%; kinase still bound, per cent of control [29]: 90%; kinase still bound, per cent of control [30]: 88%; kinase still bound, per cent of control [31]: 91%; kinase still bound, per cent of control [32]: 100%; kinase still bound, per cent of control [33]: 100%; kinase still bound, per cent of control [34]: 99%; kinase still bound, per cent of control [35]: 93%; kinase still bound, per cent of control [36]: 79%; kinase still bound, per cent of control [37]: 97%; kinase still bound, per cent of control [38]: 98%; kinase still bound, per cent of control [39]: 96%; kinase still bound, per cent of control [40]: 93%"
C=CC(=O)Nc1cccc(Nc2nc(N[C@H]3CC[C@H](N(C)C)CC3)nc3c2ncn3C(C)C)c1,25%,4%,95%,73%,94%,72%,88%,100%,100%,61%,98%,22%,26%,81%,51%,4.4%,35%,100%,94%,100%,"kinase still bound, per cent of control [21]: 75%; kinase still bound, per cent of control [22]: 52%; kinase still bound, per cent of control [23]: 0.1%; kinase still bound, per cent of control [24]: 100%; kinase still bound, per cent of control [25]: 43%; kinase still bound, per cent of control [26]: 100%; kinase still bound, per cent of control [27]: 88%; kinase still bound, per cent of control [28]: 100%; kinase still bound, per cent of control [29]: 76%; kinase still bound, per cent of control [30]: 100%; kinase still bound, per cent of control [31]: 17%; kinase still bound, per cent of control [32]: 48%; kinase still bound, per cent of control [33]: 31%; kinase still bound, per cent of control [34]: 72%; kinase still bound, per cent of control [35]: 89%; kinase still bound, per cent of control [36]: 71%; kinase still bound, per cent of control [37]: 94%; kinase still bound, per cent of control [38]: 98%; kinase still bound, per cent of control [39]: 72%; kinase still bound, per cent of control [40]: 100%"
